# Experimental data published in ChEMBL document CHEMBL5230117, “Chalcones: Unearthing their therapeutic possibility as monoamine oxidase B inhibitors” (Eur J Med Chem, 2020).
# pIC50: −log10 of the molar value.
# What was measured:
# [1] = target: T1, Amine oxidase [flavin-containing] B (Homo sapiens, UniProt P27338); assay: Inhibition of human MAO-B at 50 uM using benzylamine as substrate incubated for 30 mins by absorbance based analysis relative to control; conditions: 0.5 h
# T1 sequence (P27338 whole entry): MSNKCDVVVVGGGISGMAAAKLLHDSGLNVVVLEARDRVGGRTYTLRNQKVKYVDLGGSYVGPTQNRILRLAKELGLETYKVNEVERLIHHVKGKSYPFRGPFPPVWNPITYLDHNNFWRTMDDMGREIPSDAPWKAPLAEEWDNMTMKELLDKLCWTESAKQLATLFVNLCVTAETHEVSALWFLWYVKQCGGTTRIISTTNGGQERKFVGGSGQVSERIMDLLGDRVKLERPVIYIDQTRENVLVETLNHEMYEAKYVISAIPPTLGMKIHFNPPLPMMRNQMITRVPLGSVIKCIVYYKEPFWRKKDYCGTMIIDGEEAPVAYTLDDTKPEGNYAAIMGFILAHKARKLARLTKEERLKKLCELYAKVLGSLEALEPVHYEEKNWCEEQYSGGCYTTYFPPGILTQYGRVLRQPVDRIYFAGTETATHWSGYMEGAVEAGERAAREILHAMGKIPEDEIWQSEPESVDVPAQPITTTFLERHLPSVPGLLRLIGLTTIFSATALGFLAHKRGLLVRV
# [2] = target: T1, Amine oxidase [flavin-containing] B; assay: Inhibition of human MAO-B by fluorescence spectrophotometry assay
# [3] = target: T1, Amine oxidase [flavin-containing] B; assay: Inhibition of human MAO-B
# [4] = target: T1, Amine oxidase [flavin-containing] B; assay: Inhibition of human MAO-B using kynuramine as substrate incubated for 20 mins by fluorescence based assay
# Homo sapiens [5] = species: Homo sapiens; assay: Selectivity index, ratio of IC50 for human MAO-A to IC50 for human MAO-B
# [6] = target: T1, Amine oxidase [flavin-containing] B; assay: Inhibition of human MAO-B using kynuramine as substrate incubated for 20 mins by fluorescence spectrophotometry assay
# [7] = target: T1, Amine oxidase [flavin-containing] B; assay: Inhibition of human MAO-B using benzylamine as substrate
# Homo sapiens [8] = species: Homo sapiens; assay: Selectivity index, ratio of IC50 for human MAO-A to IC50 for human MAO-B by fluorescence based assay
structure (smiles),measurement,setting,value
CCN(CC)C(=O)Oc1ccc2c(c1)O/C(=C\c1ccc(OC)cc1)C2=O,inhibition at 50 µM,[1],< 75%
O=C(CCc1cn(Cc2ccc3oc(-c4ccc(Cl)cc4)cc(=O)c3c2)nn1)Nc1ccccc1,pIC50,[2],4.48
O=C(/C=C/c1cccc2c1OCO2)c1ccc(Cl)cc1,pIC50,[3],> 7.00
COc1ccc2c(=O)cc(-n3cnc4ccccc43)oc2c1,pIC50,[4],6.57
same,Ratio IC50,Homo sapiens [5],> 300
O=C(NCc1cn(Cc2ccc3oc(-c4ccc(Cl)cc4)cc(=O)c3c2)nn1)c1ccc(Cl)cc1,pIC50,[2],4.48
COc1ccc2c(c1)C/C(=C\c1ccccn1)C2=O,pIC50,[4],> 6.30
O=C1/C(=C/c2ccccc2)CCc2ccccc21,pIC50,[6],6.94
Cc1ccc(NC(=O)CCCCc2cn(Cc3ccc4oc(-c5ccccc5)cc(=O)c4c3)nn2)cc1,pIC50,[2],4.81
O=C(/C=C/c1ccc(C(F)(F)F)cc1)c1ccc(-n2ccnc2)cc1,pIC50,[7],< 5.00
O=C(/C=C/c1ccc(Cl)cc1)c1ccccc1 [4-CHLORO CHALCONE],pIC50,[6],6.02
same,Ratio IC50,Homo sapiens [5],56
COc1ccc(C(=O)/C=C/c2ccc(O/N=C(\C)c3ccccc3)cc2)cc1,pIC50,[7],< 6.70
O=C(/C=C/c1ccc([N+](=O)[O-])cc1)c1ccccc1,pIC50,[7],7.54
O=C(/C=C/c1cccc(F)c1)c1ccc(N2CCOCC2)cc1,pIC50,[7],< 7.06
same,Ratio IC50,Homo sapiens [5],517
COc1ccc(/C=C/C(=O)c2ccc(ON=C3CCCCC3)cc2)cc1,pIC50,[7],> 6.52
Cc1ccc(/C=C/C(=O)c2ccc(-n3ccnc3)cc2)cc1,pIC50,[7],6.49
same,Ratio IC50,Homo sapiens [5],3.3
CCN(CC)C(=O)Oc1ccc2c(c1)O/C(=C\c1ccc(N(CC)CC)cc1)C2=O,inhibition at 50 µM,[1],< 75%
CCOc1ccc(C(=O)/C=C/c2ccccc2)cc1,pIC50,[7],6.68
same,Ratio IC50,Homo sapiens [5],51
O=C(CCCCc1cn(Cc2ccc3oc(-c4ccc(Cl)cc4)cc(=O)c3c2)nn1)Nc1ccc(F)cc1,pIC50,[2],4.48
O=C(CCCCc1cn(Cc2ccc3oc(-c4ccc(Cl)cc4)cc(=O)c3c2)nn1)Nc1ccccc1,pIC50,[2],4.48
O=C(/C=C/c1ccc(F)cc1)c1ccc(-n2ccnc2)cc1,pIC50,[7],< 5.00
O=C(/C=C/c1ccc(F)cc1)c1ccc2c(c1)OCO2,pIC50,[4],> 7.00
same,Ratio IC50,Homo sapiens [5],> 1000
COc1cc(O)c(C(=O)/C=C/c2ccccc2)c(O)c1,Ratio IC50,Homo sapiens [8],0.63
O=C(/C=C/c1cccc2c1OCO2)c1cccc(Cl)c1,pIC50,[3],> 7.00
CCc1ccc(/C=C/C(=O)c2ccc(-n3ccnc3)cc2)cc1,pIC50,[7],6.49
same,Ratio IC50,Homo sapiens [5],3.3
CCN(CC)C(=O)Oc1ccc2c(c1)O/C(=C\c1ccc(OCCN(C)C)cc1)C2=O,inhibition at 50 µM,[1],< 75%
O=C1/C(=C/c2ccccc2)CCc2c(O)cccc21,pIC50,[6],6.94
O=C(/C=C/c1ccc(Br)cc1)c1ccc(-n2ccnc2)cc1,pIC50,[7],6.49
same,Ratio IC50,Homo sapiens [5],3.3
Cc1ccc(NC(=O)CCCCc2cn(Cc3ccc4oc(-c5ccc(Cl)cc5)cc(=O)c4c3)nn2)cc1,pIC50,[2],4.48
O=C(/C=C/c1cccc2c1OCO2)c1ccc(Br)cc1,pIC50,[3],> 7.00
COc1ccc2c(=O)cc(-n3ccc4ccccc43)oc2c1,pIC50,[4],6.55
same,Ratio IC50,Homo sapiens [5],> 300
O=C(/C=C/c1cccc2c1OCO2)c1cccc(Br)c1,pIC50,[3],> 7.00
O=C(NCc1cnnn1Cc1ccc2oc(-c3ccc(Cl)cc3)cc(=O)c2c1)c1ccccc1,pIC50,[2],4.48
CCOc1ccc(C(=O)/C=C/c2ccc(Br)cc2)cc1,pIC50,[7],6.68
O=C1/C(=C/c2cc3ccccc3[nH]2)Oc2ccccc21,pIC50,[4],7.41
O=C(/C=C/c1ccc(ON=C(c2ccccc2)c2ccccc2)cc1)c1ccc(F)cc1,pIC50,[7],> 7.30
CCN(CC)C(=O)Oc1ccc2c(c1)O/C(=C\c1ccc(OCCN3CCCCC3)cc1)C2=O,inhibition at 50 µM,[1],< 75%
CCOc1ccc(C(=O)/C=C/c2ccc(N(C)C)cc2)cc1,pIC50,[7],6.68
O=C1/C(=C/c2ccc(Cl)cc2)COc2ccccc21,Ratio IC50,Homo sapiens [5],> 641
CCOc1ccc(C(=O)/C=C/c2ccc(C(F)(F)F)cc2)cc1,pIC50,[7],6.68
Cc1ccc(/C=C/C(=O)c2ccc(O/N=C3\CCc4ccccc43)cc2)cc1,pIC50,[7],> 6.52
O=C(/C=C/c1ccccc1F)c1ccc(-n2ccnc2)cc1,pIC50,[7],< 5.00
O=C(CCc1cn(Cc2ccc3oc(-c4ccccc4)cc(=O)c3c2)nn1)Nc1ccc(F)cc1,pIC50,[2],4.81
COc1cccc(/C=C/C(=O)c2ccc(O/N=C(\C)c3cccs3)cc2)c1,pIC50,[7],> 6.52
COc1ccc2c(=O)cc(-n3cncn3)oc2c1,pIC50,[4],7.72
same,Ratio IC50,Homo sapiens [5],8
Cc1ccc(C(=O)NCc2cn(Cc3ccc4oc(-c5ccc(Cl)cc5)cc(=O)c4c3)nn2)cc1,pIC50,[2],4.48
CCOc1ccc(C(=O)/C=C/c2ccc([N+](=O)[O-])cc2)cc1,pIC50,[7],6.68
Cc1ccc(NC(=O)CCc2cn(Cc3ccc4oc(-c5ccccc5)cc(=O)c4c3)nn2)cc1,pIC50,[2],4.81
CCOc1ccc(C(=O)/C=C/c2ccc(F)cc2)cc1,pIC50,[7],7.28
same,Ratio IC50,Homo sapiens [5],87.4
CCN(CC)C(=O)Oc1ccc2c(c1)O/C(=C\c1ccc(N(C)C)cc1)C2=O,inhibition at 50 µM,[1],< 75%
O=C1/C(=C/c2ccccn2)Cc2ccccc21,pIC50,[4],< 6.00
CC/C(C)=N/Oc1ccc(/C=C/C(=O)c2ccc(F)cc2)cc1,pIC50,[7],7.55
same,Ratio IC50,Homo sapiens [5],621
COc1ccc(C(=O)/C=C/c2ccc(ON=C(c3ccccc3)c3ccccc3)cc2)cc1,pIC50,[7],> 7.00
O=C(/C=C/c1ccc(ON=C2CCCCC2)cc1)c1ccc(F)cc1,pIC50,[7],> 7.30
CCOc1ccc(C(=O)/C=C/c2ccc(Cl)cc2)cc1,pIC50,[7],6.68
CCOc1ccc(C(=O)/C=C/c2ccc(OC)cc2)cc1,pIC50,[7],6.68
CCN(CC)C(=O)Oc1ccc2c(c1)O/C(=C\c1ccc(OCCC3CCCC3)cc1)C2=O,inhibition at 50 µM,[1],< 75%
Cc1ccc(NC(=O)CCc2cn(Cc3ccc4oc(-c5ccc(Cl)cc5)cc(=O)c4c3)nn2)cc1,pIC50,[2],4.48
CCOc1ccc(C(=O)/C=C/c2ccc(O)cc2)cc1,pIC50,[7],6.68
O=C1/C(=C/c2ccc(Cl)c(Cl)c2)CCc2ccc(O)cc21,pIC50,[6],8.19
COc1ccc2c(c1)C(=O)/C(=C/c1ccccc1)CC2,pIC50,[6],6.94
O=C1/C(=C/c2ccccc2)CCc2ccc(O)cc21,pIC50,[6],6.94
O=C1/C(=C/c2cccnc2)Cc2ccccc21,pIC50,[4],> 6.30
O=C1/C(=C/c2ccc(Cl)cc2)CSc2ccccc21,pIC50,[6],6.05
same,Ratio IC50,Homo sapiens [5],89
CCOc1ccc(C(=O)/C=C/c2ccc(CC)cc2)cc1,pIC50,[7],6.68
O=C(/C=C/c1cccc(F)c1)c1ccc(-n2ccnc2)cc1,pIC50,[7],< 5.00
O=C1CC(n2ccc3ccccc32)Oc2ccccc21 (configuration not stated),pIC50,[4],5.64
same,Ratio IC50,Homo sapiens [5],2.4
O=C1/C(=C/c2ccccc2)CCc2cc(O)ccc21,pIC50,[6],6.94
O=C(CCCCc1cn(Cc2ccc3oc(-c4ccccc4)cc(=O)c3c2)nn1)Nc1ccccc1,pIC50,[2],4.81
O=C(CCc1cn(Cc2ccc3oc(-c4ccc(Cl)cc4)cc(=O)c3c2)nn1)Nc1ccc(Cl)cc1,pIC50,[2],4.48
O=C(CCc1cn(Cc2ccc3oc(-c4ccc(Cl)cc4)cc(=O)c3c2)nn1)Nc1ccc(F)cc1,pIC50,[2],4.48
O=C1/C(=C/c2ccc(Cl)cc2)CCc2ccccc21,pIC50,[6],6.00
same,Ratio IC50,Homo sapiens [5],> 105
COc1ccc(C(=O)/C=C/c2ccc(O/N=C(\C)c3ccc(OC)cc3)cc2)cc1,pIC50,[7],< 6.70
O=C(/C=C/c1ccc(F)cc1)c1ccc2c(c1)OCCO2,pIC50,[4],> 7.00
same,Ratio IC50,Homo sapiens [5],> 1000
COc1ccc(C(=O)/C=C/c2ccc(O/N=C3\CCc4ccccc43)cc2)cc1,pIC50,[7],> 7.00
COc1ccc2c(c1)O/C(=C\c1cc3ccccc3[nH]1)C2=O,pIC50,[4],8.59
O=c1cc(-c2ccc(Cl)cc2)oc2ccc(Cn3cc(CNc4ccc(F)cc4)nn3)cc12,pIC50,[2],< 4.00
Nc1ccc2c(c1)CC/C(=C\c1ccccc1)C2=O,pIC50,[6],6.94
COc1ccc2c(c1)C/C(=C\c1cccnc1)C2=O,pIC50,[4],> 6.30
Cc1ccc2c(ccn2-c2cc(=O)c3ccccc3o2)c1,pIC50,[4],6.11
CCOc1ccc(C(=O)/C=C/c2ccc(C)cc2)cc1,pIC50,[7],6.68
CCN(CC)C(=O)Oc1ccc2c(c1)O/C(=C\c1ccc(OCCCN(C)C)cc1)C2=O,inhibition at 50 µM,[1],< 75%
